Laboratory results taken from ChEMBL document CHEMBL1131753, “Selective binding of bryostatin analogues to the cysteine rich domains of protein kinase C isozymes” (Bioorg Med Chem Lett, 1999).
pKi: −log10 of the molar value.

Columns and labels:
[1] = molecular target: T1, Protein kinase C gamma type (Homo sapiens, UniProt P05129); experiment: Displacement of [3H]-PDBu from protein kinase C gamma C1a domain
[2] = molecular target: T1, Protein kinase C gamma type; experiment: Displacement of [3H]PDBu from protein kinase C gamma C1b domain
[3] = molecular target: T2, Protein kinase C delta type (Homo sapiens, UniProt Q05655); experiment: Displacement of [3H]PDBu from protein kinase C delta C1b domain
[4] = molecular target: Protein kinase C beta type (Homo sapiens, UniProt P05771); experiment: Displacement of [3H]PDBu from protein kinase C beta C1b domain
[5] = molecular target: T2, Protein kinase C delta type; experiment: Displacement of [3H]PDBu from protein kinase C delta C1a domain
[6] = molecular target: T3, Protein kinase C epsilon type (Homo sapiens, UniProt Q02156); experiment: Displacement of [3H]PDBu from protein kinase C epsilon C1b domain
T3 sequence (Q02156 whole entry): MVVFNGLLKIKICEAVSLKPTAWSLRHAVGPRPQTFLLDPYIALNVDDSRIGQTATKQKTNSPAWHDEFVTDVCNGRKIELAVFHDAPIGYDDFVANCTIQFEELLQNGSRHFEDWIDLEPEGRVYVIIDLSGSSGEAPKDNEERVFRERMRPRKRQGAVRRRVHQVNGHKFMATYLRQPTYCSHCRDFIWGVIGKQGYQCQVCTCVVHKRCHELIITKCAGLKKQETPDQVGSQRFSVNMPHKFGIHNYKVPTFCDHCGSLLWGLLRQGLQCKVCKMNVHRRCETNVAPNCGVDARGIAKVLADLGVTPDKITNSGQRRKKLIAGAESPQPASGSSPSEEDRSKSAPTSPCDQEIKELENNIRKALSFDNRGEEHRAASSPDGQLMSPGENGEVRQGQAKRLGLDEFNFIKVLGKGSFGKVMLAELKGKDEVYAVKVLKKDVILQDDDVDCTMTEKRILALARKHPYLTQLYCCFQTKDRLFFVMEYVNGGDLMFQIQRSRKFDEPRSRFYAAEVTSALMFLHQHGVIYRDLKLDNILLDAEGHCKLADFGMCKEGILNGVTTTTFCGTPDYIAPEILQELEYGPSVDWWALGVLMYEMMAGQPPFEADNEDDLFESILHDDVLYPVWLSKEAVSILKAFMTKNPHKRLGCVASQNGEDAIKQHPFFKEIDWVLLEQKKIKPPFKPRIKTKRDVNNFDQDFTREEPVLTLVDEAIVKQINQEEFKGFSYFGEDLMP

[7] = molecular target: Protein kinase C theta type (Homo sapiens, UniProt Q04759); experiment: Displacement of [3H]PDBu from protein kinase C theta-C1B domain
[8] = molecular target: Protein kinase C eta type (Homo sapiens, UniProt P24723); experiment: Displacement of [3H]PDBu from protein kinase C eta C1b domain
[9] = molecular target: Protein kinase C alpha type (Homo sapiens, UniProt P17252); experiment: Displacement of [3H]PDBu from protein kinase C alpha C1b domain

Chain of Protein kinase C beta type (P05771 whole entry, the tested form may be a part): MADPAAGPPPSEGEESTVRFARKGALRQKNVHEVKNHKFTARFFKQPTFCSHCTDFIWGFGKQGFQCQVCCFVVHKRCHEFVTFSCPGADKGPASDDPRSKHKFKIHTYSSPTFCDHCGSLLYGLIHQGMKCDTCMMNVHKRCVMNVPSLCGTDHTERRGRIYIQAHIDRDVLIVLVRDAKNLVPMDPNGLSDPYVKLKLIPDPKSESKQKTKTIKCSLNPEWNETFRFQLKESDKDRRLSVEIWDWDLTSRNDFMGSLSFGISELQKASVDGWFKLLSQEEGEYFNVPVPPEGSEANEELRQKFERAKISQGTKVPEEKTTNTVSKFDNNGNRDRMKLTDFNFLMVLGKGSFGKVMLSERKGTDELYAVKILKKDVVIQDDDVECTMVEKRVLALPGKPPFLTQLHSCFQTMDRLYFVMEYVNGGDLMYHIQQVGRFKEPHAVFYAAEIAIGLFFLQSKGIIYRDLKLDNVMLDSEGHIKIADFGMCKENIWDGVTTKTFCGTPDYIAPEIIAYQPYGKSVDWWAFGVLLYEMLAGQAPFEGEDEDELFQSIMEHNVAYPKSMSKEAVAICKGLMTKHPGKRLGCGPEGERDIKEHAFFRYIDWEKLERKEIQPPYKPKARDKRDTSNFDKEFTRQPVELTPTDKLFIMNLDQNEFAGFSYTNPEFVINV
Chain of Protein kinase C eta type (P24723 whole entry, the tested form may be a part): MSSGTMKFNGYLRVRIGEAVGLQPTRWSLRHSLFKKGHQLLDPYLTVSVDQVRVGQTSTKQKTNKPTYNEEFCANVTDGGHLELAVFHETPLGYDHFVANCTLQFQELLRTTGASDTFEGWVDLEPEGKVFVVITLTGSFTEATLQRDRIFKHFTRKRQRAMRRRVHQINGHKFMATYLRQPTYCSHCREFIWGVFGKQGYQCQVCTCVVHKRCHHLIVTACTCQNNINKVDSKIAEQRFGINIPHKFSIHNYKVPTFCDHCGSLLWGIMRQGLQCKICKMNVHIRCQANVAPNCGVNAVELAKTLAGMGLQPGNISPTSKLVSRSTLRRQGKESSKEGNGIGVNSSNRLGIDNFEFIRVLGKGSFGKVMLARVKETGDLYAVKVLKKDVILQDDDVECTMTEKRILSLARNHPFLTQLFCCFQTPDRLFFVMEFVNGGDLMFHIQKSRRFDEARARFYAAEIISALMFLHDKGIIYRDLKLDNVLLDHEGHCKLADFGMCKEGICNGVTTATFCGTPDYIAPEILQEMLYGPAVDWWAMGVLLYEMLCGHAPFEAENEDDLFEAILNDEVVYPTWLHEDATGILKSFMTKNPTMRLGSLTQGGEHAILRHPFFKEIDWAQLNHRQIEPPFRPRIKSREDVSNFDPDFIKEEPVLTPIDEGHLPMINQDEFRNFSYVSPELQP
T2 sequence (Q05655 whole entry, the tested form may be a part): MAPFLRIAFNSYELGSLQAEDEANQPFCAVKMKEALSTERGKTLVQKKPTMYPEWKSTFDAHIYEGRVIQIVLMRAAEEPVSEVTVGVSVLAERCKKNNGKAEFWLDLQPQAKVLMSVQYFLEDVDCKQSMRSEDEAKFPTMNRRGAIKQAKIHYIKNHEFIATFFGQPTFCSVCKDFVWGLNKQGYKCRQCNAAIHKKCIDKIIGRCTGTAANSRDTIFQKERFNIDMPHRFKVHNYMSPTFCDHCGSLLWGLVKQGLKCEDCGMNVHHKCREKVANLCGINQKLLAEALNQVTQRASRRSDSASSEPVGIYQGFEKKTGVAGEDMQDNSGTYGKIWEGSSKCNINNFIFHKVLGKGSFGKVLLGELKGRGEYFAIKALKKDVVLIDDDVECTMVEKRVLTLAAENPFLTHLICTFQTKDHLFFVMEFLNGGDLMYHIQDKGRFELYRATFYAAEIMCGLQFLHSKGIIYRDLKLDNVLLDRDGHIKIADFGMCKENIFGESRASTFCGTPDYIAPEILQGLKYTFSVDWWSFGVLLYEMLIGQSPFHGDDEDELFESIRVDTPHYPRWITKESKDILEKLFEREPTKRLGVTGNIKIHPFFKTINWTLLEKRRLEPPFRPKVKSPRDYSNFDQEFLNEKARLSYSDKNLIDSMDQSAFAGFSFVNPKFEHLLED
Chain of Protein kinase C theta type (Q04759 whole entry, the tested form may be a part): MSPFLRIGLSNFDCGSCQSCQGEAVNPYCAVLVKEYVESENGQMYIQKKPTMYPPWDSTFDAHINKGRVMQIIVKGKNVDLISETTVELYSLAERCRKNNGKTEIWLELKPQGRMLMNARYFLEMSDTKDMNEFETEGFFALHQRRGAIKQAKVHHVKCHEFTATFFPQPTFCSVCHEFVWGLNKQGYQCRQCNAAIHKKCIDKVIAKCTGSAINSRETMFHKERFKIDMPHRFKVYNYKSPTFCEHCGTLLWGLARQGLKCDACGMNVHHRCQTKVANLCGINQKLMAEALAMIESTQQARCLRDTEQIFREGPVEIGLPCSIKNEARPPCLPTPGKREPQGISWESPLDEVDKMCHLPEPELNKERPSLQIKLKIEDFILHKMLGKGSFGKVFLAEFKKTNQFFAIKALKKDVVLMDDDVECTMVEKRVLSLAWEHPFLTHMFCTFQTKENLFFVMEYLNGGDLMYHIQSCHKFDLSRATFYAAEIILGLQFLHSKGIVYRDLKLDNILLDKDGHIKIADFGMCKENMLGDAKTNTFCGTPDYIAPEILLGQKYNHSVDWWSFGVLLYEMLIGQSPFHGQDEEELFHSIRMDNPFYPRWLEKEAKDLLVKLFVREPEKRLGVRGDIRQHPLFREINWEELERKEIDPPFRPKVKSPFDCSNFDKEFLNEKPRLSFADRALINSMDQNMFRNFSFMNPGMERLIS

Structure (SMILES)	pKi [1]	pKi [2]	pKi [3]	pKi [4]	pKi [5]	pKi [6]	pKi [7]	pKi [8]	pKi [9]
CCCCCCCC(=O)O[C@H]1/C(=C/C(=O)OC)CC2C[C@H]([C@@H](C)O)OC(=O)C[C@H](O)CCO[C@H](C(C)(C)C)C[C@@H]3CCO[C@H](/C=C/C(C)(C)[C@]1(O)O2)O3	< 6.30	< 6.30	8.20	7.44	7.07	7.26	7.62	7.15	< 6.30
CCCCCCCC(=O)O[C@H]1/C(=C/C(=O)OC)CC2C[C@H]([C@@H](C)O)OC(=O)C[C@@H](O)C[C@@H]3CCC[C@H](C[C@@H]4CCO[C@H](/C=C/C(C)(C)[C@]1(O)O2)O4)O3	< 6.30	< 6.30	7.19	6.55	6.31	6.31	6.83	< 6.30	< 6.30
CCCCCCCC(=O)O[C@H]1/C(=C/C(=O)OC)CC2C[C@H]([C@@H](C)O)OC(=O)C[C@H](O)C[C@@H]3CCC[C@H](C[C@@H]4CCO[C@H](/C=C/C(C)(C)[C@]1(O)O2)O4)O3	< 6.30	< 6.30	8.60	7.87	7.18	7.75	8.18	7.63	6.90
